Source: patent US10028931B2, “Synergistic compositions for treating microbial infections” (UNIVERSITY OF ROCHESTER, priority 2014, dated 2018)
Values after ≈ are worked out from the molar mass of the structure shown. Where two headings read alike, the source gives them in different places.

Columns and labels:
[1] = system: Staphylococcus aureus strain UAMS-1; assay: Antimicrobial susceptibility testing (MIC, broth microdilution); type: cell-based; settings: S. aureus UAMS-1, Mueller Hinton broth, 37° C.
Experimental: The RNase P inhibitors described herein were tested for antimicrobial activity toward Staphylococcus aureus strain UAMS-1. Individual wells of a 96-well microtiter plate were inoculated with ˜1×10^5 colony-forming units (CFU) of the indicated organism, containing two-fold increasing concentrations (from 0 to 256 μg mL^−1) of the indicated antibiotic or putative RnpA inhibitor, and incubated at 37° C. for 18 hours in Mueller Hinton broth. The MIC was defined as the lowest concentration of antibiotic in which there was no visible bacterial growth in the wells. Minimum bactericidal concentration testing was performed by enumerating the bacterial cells in each of the wells containing treatments at and above the MIC.

[2] = biological target: T1, RnpA (Staphylococcus aureus, UniProt P0A0H5); assay: RnpA mRNA degradation activity assay; type: biochemical
T1 sequence (P0A0H5 1-117): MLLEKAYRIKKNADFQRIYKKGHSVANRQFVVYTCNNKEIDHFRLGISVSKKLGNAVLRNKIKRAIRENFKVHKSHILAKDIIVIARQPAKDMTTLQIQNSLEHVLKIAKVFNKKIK
Experimental: The RNase P inhibitors described herein were tested for activity toward RnpA mRNA degradation activity. Either 1 μg of total S. aureus RNA or 1 pmol of in vitro synthesized spa mRNA was incubated with 20 pmol RnpA at 37° C. for 15 to 30 min in a reaction buffer (50 mM Tris-HCl pH 8.0, 2 mM NaCl, 2 mM MgCl2) in the absence or presence of the indicated compound. Reactions were stopped by adding an equal volume of 2×RNA loading dye (95% formamide, 0.025% SDS, 0.025% bromophenol blue, 0.025% xylene cyanol FF, 0.5 mM EDTA), run on a denaturing 1.0% agarose-0.66 M formaldehyde gel and stained with ethidium bromide. RNA substrates and corresponding degradation products were visualized using a FluorChem 5500 system (Alpha Innotech; San Leandro, Calif.). The inhibitory effects of the test compounds were measured using Image J densitometry software (National Institutes of Health; Bethesda, Md.) to quantify the signal intensity of the RNA band(s) in the negative control (RNA alone), positive control (RnpA+RNA+DMSO), and experimental samples (RnpA+RNA+test compound). The percent enzyme inhibition of test compounds was calculated using the following equation: Percent inhibition=[(experimental signal-positive control)/(negative control signal-positive control signal)]*100.

[3] = biological target: T2, S. aureus RNase P (RnpA+rnpB) (Staphylococcus aureus, UniProt P0A0H5); assay: RNase P activity assay (precursor tRNA processing); type: biochemical; settings: gel densitometry
T2 sequence (P0A0H5 1-117): T1 sequence (P0A0H5 1-117)
Experimental: The RNase P inhibitors described herein were tested for activity toward RNase P. S. aureus RNase P activity assays were performed in low salt buffer (50 mM Tris-HCl pH 8.0, 5 mM MgCl2) or in high salt buffer (50 mM Tris-HCl pH 8.0, 100 mM MgCl2, 800 mM NH4Cl). For all reactions, ptRNATyr, tRNATyr, or rnpB RNA species were first denatured by heating to 95° C. for 3 minutes, and then slowly cooling the mixtures to room temperature. RNase P was reconstituted by mixing an equal molar ratio of RnpB and RnpA for 15 min at 37° C. Precursor tRNA processing reactions (20 μL) were performed by mixing 1.25 pmol RNase P (RnpA+rnpB), RnpA, or rnpB with an equal volume of 2× low salt buffer or 2× high salt buffer and 10 pmol ptRNATyr. Mixtures were incubated for 15 min at 37° C. Reactions were stopped by adding 20 μL 2×RNA loading dye (95% formamide, 0.025% SDS, 0.025% bromophenol blue, 0.025% xylene cyanol FF, 0.5 mM EDTA), and 30 μL of each sample was electrophoresed in a 7 M urea/8% polyacrylamide gel and was then stained with ethidium bromide (0.5 μg/ml). Where indicated, reactions were repeated in the presence of the indicated amount of putative RnpA inhibitors or dimethyl sulfoxide (DMSO). A FluorChem 5500 imaging system was used to visualize the RNA, and the relative abundance of the mature tRNATyr band in the positive control (RNase P+DMSO) or in samples containing test compounds was measured using Image J densitometry software (NIH). The percent RNase P activity was then calculated using the following calculation: (test compound tRNATyr signal/positive control tRNATyr signal)*100.

[4] = system: S. aureus strain UAMS-1; assay: Fractional Inhibitory Concentration testing with mupirocin; type: cell-based; settings: combined with mupirocin, S. aureus UAMS-1, Mueller Hinton broth, 18 hours; synergistic FIC≤0.5
Experimental: The RNase P inhibitors described herein were tested for Fractional Inhibitory Concentration (FIC) in the presence of mupirocin. FIC testing was performed to determine the combined effects of mupirocin and the RnpA inhibitors as described herein. Individual wells of a 96-well microtiter plate were inoculated with 1×10^5 CFU of S. aureus strain UAMS-1 in a Mueller Hinton broth. Each row of the plate contained increasing concentrations of RNPA1000 or RNPA2000 (two-fold increments; 0, 0.004, 0.008, 0.016, 0.03, 0.06, 0.125, 0.25, 0.5, 1, 2, or 4×MIC), whereas each column contained increasing concentrations of the indicated antibiotic (two-fold increments; 0, 0.06, 0.125, 0.25, 0.5, 1, 2, or 4×MIC). Plates were incubated for 18 hours at 37° C., and growth was detected by the unaided eye. The FIC was determined using the following formula: (MIC of Drug A in Combination/MIC of Drug A Alone)+(MIC of Drug B in Combination/MIC of Drug B Alone)=FIC. A synergistic interaction was defined as an FIC value≤0.5, no interaction as an FIC of 0.5-4, or an antagonistic interaction FIC>4.

[5] = Staphylococcus aureus, UAMS1, 18 h, read-out: MIC
[6] = RnpA mRNA degradation, gel densitometry, read-out: RnpA IC50
[7] = ptRNATyr processing, read-out: RNase P IC50

| Compound | MIC [1, 5] [mg/L] | IC50 [2, 6] [µM] | IC50 [3, 7] [µM] | FIC with Mupirocin [4] | IC50 [2] [µM] | MIC ([1]; 18 hours) [mg/L] | IC50 ([3]; RNase P IC50, ptRNATyr processing) [µM] |
| --- | --- | --- | --- | --- | --- | --- | --- |
| CC(C)c1ccc(OCC(=O)NNC(=S)NC(=O)c2cccs2)cc1 [MC-190029] | 128 (≈ 339 µM) | > 500 | 380 | 0.5 |  |  |  |
| CC(C)c1ccc(OCC(=O)NNC(=S)NC(=O)c2ccsc2)cc1 [MC-190030] | 64 (≈ 170 µM) |  | 395 | 0.375 | > 500 |  |  |
| CC(C)c1ccc(OCC(=O)NNC(=S)NC(=O)c2cc3ccccc3o2)cc1 [MC-190031] | 32 (≈ 77.8 µM) | 60 | 1 | 0.25 |  |  |  |
| COc1ccccc1C(=O)NNC(=O)COc1ccc(C(C)C)cc1 [MC-190032] | > 128 | > 500 | 75 | 0.75 |  |  |  |
| COc1ccccc1C(=O)NC(=S)NNC(=O)COc1ccc(C(C)C)cc1 [MC-190033] | 128 (≈ 319 µM) | 250 | > 500 | 0.3125 |  |  |  |
| CC(C)c1ccc(OCC(=O)NNC(=S)NC(=O)c2ccno2)cc1 [MC-190037] | 32 (≈ 88.3 µM) |  | > 500 | 0.625 |  |  |  |
| Cc1ccoc1C(=O)NNC(=O)COc1ccc(C(C)C)cc1 [MC-190040] | > 256 | 480 | 230 | 0.625 |  |  |  |
| Cc1ccc(C(=O)NC(=S)NNC(=O)COc2ccc(C(C)C)cc2)o1 [MC-190044] | 32 (≈ 85.2 µM) | 30 | 105 | 0.49 |  |  |  |
| CC(C)c1ccc(OCC(=O)NNC(=S)NC(=O)/C=C/c2ccco2)cc1 [MC-190045] | 64 (≈ 165 µM) | 100 | 32 | 0.625 |  |  |  |
| CC(C)c1ccc(OCC(=O)NNC(=S)NC(=O)c2ccc(Br)o2)cc1 [MC-190046] | 32 (≈ 72.7 µM) | 30 | 140 | 0.3125 |  |  |  |
| CC(C)c1ccc(OCC(=O)NNC(=S)NC(=O)/C=C/c2cc3ccccc3o2)cc1 [MC-190047] | 64 (≈ 146 µM) | 30 | 26 | 0.625 |  |  |  |
| CC(C)c1ccc(OCC(=O)NNC(=O)/C=C/c2cc3ccccc3o2)cc1 [MC-190048] | > 256 | < 50 | < 50 | 0.5625 |  |  |  |
| CC(C)c1ccc(OCC(=O)NNC(=S)NC(=O)c2cccnc2)cc1 [MC-190049] | 64 (≈ 172 µM) |  | 160 | 1 | > 500 |  |  |
| CC(C)c1ccc(OCC(=O)NNC(=S)NC(=O)c2nc3ccccc3[nH]2)cc1 [MC-190052] | 128 (≈ 311 µM) | 150 | 90 | 0.56 |  |  |  |
| CC(C)c1ccc(OCC(=O)NNC(=S)NC(=O)c2cc3ccccc3n2C)cc1 [MC-190056] | 64 (≈ 151 µM) | 240 |  | 0.49 |  |  |  |
| CC(C)c1ccc(OCC(=O)NNC(=S)NC(=O)c2cc3cc(F)ccc3[nH]2)cc1 [MC-190062] | 64 (≈ 149 µM) |  |  | 0.56 |  |  |  |
| CCCOc1ccc(OCC(=O)NNC(=S)NC(=O)c2ccco2)cc1 [MC-190072] | 128 (≈ 339 µM) |  |  | 0.625 |  |  |  |
| Cc1ccc(C(=O)NNC(=S)NC(=O)c2ccco2)cc1 [MC-190073] |  |  |  | 0.75 |  | 64 (≈ 211 µM) |  |
| O=C(/C=C/c1ccccc1)NNC(=S)NC(=O)c1ccco1 [MC-190074] | 64 (≈ 203 µM) |  |  | 0.625 |  |  |  |

| Compound | MIC [1, 5] [mg/L] | IC50 [2, 6] [µM] | IC50 [3, 7] [µM] | FIC with Mupirocin [4] | IC50 [2] [µM] | MIC ([1]; 18 hours) [mg/L] | IC50 ([3]; RNase P IC50, ptRNATyr processing) [µM] |
| --- | --- | --- | --- | --- | --- | --- | --- |
| CC(C)c1ccc(OCC(=O)NNC(=S)NC(=O)c2ccc3ccccc3n2)cc1 [MC-190077] | > 128 |  |  | 0.53 |  |  |  |
| CC(C)c1ccc(/C=C/C(=O)NNC(=S)NC(=O)c2ccco2)cc1 [MC-190078] | 64 (≈ 179 µM) |  |  | 0.625 |  |  |  |
| O=C(COc1ccccc1)NNC(=S)NC(=O)c1ccco1 [MC-190079] | > 128 |  |  | 0.75 |  |  |  |
| CC(C)c1ccc(OCC(=O)NNC(=S)NC(=O)c2cccc(-c3ccccc3)n2)cc1 [MC-190081] | > 128 |  |  | 0.56 |  |  |  |
| Cc1cc(C)cc(OCC(=O)NNC(=S)NC(=O)C2CC2)c1 [ST5523339] | 16 (≈ 49.8 µM) | > 500 |  | 1 |  |  |  |
| CC(C)c1ccc(OCC(=O)NNC(=S)NC(=O)c2ccco2)c(Br)c1 [ST5524693] | 8 (≈ 18.2 µM) |  | 350 | 0.49 |  |  |  |
| Cc1ccc(OCc2ccc(C(=O)NNC(=S)NCC(C)C)o2)c(C)c1 [ST5607269] | > 128 | 150 | > 500 |  |  |  |  |
| CCc1ccc(OCc2ccc(C(=O)NNC(=S)NCC(C)C)o2)cc1 [ST5607293] | > 128 | > 500 | > 500 |  |  |  |  |
| COc1cccc(OC)c1C(=O)NC(=S)NNC(=O)c1ccco1 [ST5638707] | 128 (≈ 366 µM) | > 500 | > 500 |  |  |  |  |
| Cc1ccccc1C(=O)NNC(=S)NC(=O)c1ccco1 [ST5638722] | 64 (≈ 211 µM) | > 500 | 430 |  |  |  |  |
| O=C(NC(=S)NNC(=O)c1ccc(O)cc1O)c1ccco1 [ST5640720] | 16 (≈ 49.8 µM) | > 500 | > 500 |  |  |  |  |
| O=C(NNC(=S)NC(=O)c1ccco1)c1cnccn1 [ST5641784] | 32 (≈ 110 µM) | > 500 | > 500 |  |  |  |  |
| O=C(Cc1ccc(Cl)cc1)NNC(=S)NC(=O)c1ccco1 [ST5642600] | 16 (≈ 47.4 µM) | > 500 | > 500 |  |  |  |  |
| Cc1ccc(C(=O)NNC(=S)NC(=O)c2ccco2)cc1 [ST5682777] |  | > 500 | 70 |  |  | 16 (≈ 52.7 µM) |  |
| COc1ccccc1OCC(=O)NNC(=S)NC(=O)c1ccco1 [ST5682778] | > 128 | > 500 | > 500 |  |  |  |  |
| O=C(COc1ccc(Cl)cc1Cl)NNC(=S)NC(=O)c1ccco1 [ST5682846] | 4 (≈ 10.3 µM) | > 500 |  |  |  |  | 80 |
| O=C(NC(=S)NNC(=O)c1ccccc1O)c1ccco1 [ST5703881] |  | > 500 | > 500 |  |  | 16 (≈ 52.4 µM) |  |
| O=C(NC(=S)NNC(=O)c1ccco1)c1ccc(F)c(F)c1 [ST5704832] | > 128 | > 500 | > 500 |  |  |  |  |
